In brackets after ≈: the same amount, converted by molar mass.
Key:
[1] = system: mouse leukemia L-1210 cells; assay: Antitumor activity: increase of life span of mice transplanted intraperitoneally with leukemia L-1210 cells; conditions: beginning 24 hours after transplantation, observed for 30 days, CDF mice
Method: To assess the antitumor activity of the compounds of this invention against tumors in test animals, 1 x 10^5 mouse leukemia L-1210 cells mouse were transplanted intraperitoneally to CDF, mice. […] The survival time, in days, of the compound-treated group (T) was calculated, and that of the control group (C) receiving physiological saline solution alone was also calculated. Then, the increase of life span (T/C, %) was determined.

[2] = Solubility in phosphate buffer solution (pH 7.4) at room temperature; format: physicochemical; conditions: aqueous buffer
Method: The phosphate buffer solution was prepared by mixing 0.05M potassium dihydrogenphosphate (KH2PO4) with an aqueous solution of sodium hydroxide.

[3] = Dose 0.15 mg/kg/day intraperitoneally for 9 consecutive days
[4] = Dose 0.3 mg/kg/day intraperitoneally for 9 consecutive days
[5] = Dose 0.6 mg/kg/day intraperitoneally for 9 consecutive days
[6] = Dose 1.25 mg/kg/day intraperitoneally for 9 consecutive days
[7] = Dose 2.5 mg/kg/day intraperitoneally for 9 consecutive days
[8] = Dose 5 mg/kg/day intraperitoneally for 9 consecutive days

SMILES	Increase of life span (T/C, %) [1, 3]	Increase of life span (T/C, %) [1, 4]	Increase of life span (T/C, %) [1, 5]	Increase of life span (T/C, %) [1, 6]	Increase of life span (T/C, %) [1, 7]	Increase of life span (T/C, %) [1, 8]	solubility [2]
CCCCC(=O)OCC(=O)C1(O)Cc2c(O)c3c(c(O)c2C(OC2OC(C)C(O)C(O)C2F)C1)C(=O)c1c(OC)cccc1C3=O [Compound 3 of Example 1(b), 7-0-(2.6-dideoxy-2-fluoro-α-L-talopyranosyl) adriamycinone 14-0-valerate]	135%	135%	>353%	>353%	>282%	> 306%	< 1 mg/mL
COc1cccc2c1C(=O)c1c(O)c3c(c(O)c1C2=O)CC(O)(C(=O)COC(=O)CCC(=O)O)CC3OC1OC(C)C(O)C(O)C1F [Compound 5 of Example 2(b), 7-0-(2,6-dideoxy-2-fluoro-a-L-talopyranosyl) adriamycinone 14-0-hemisuccinate]		124%	>124%	>292%	>353%	> 353%	25 mg/mL (≈ 37.7 mM)
COc1cccc2c1C(=O)c1c(O)c3c(c(O)c1C2=O)CC(O)(C(=O)COC(=O)CCCC(=O)O)CC3OC1OC(C)C(O)C(O)C1F [Compound 7 of Example 3(b), 7-0-(2.6-dideoxy-2-fluoro-a-L-talopyranosyl) adriamycinone 14-0-hemiglutarate]	129%	129%	>235%	282%	>294%	> 306%	26 mg/mL (≈ 38.4 mM)
COc1cccc2c1C(=O)c1c(O)c3c(c(O)c1C2=O)CC(O)(C(=O)COC(=O)CCCCC(=O)O)CC3OC1OC(C)C(O)C(O)C1F [Compound 9 of Example 4(b), 7-0-(2.6-dideoxy-2-fluoro-a-L-talopyranosyl) adriamycinone 14-0-hemiadipate]	112%	141%	165%	265%	>353%	>353%	33 mg/mL (≈ 47.8 mM)
COc1cccc2c1C(=O)c1c(O)c3c(c(O)c1C2=O)CC(O)(C(=O)COC(=O)CCCCCC(=O)O)CC3OC1OC(C)C(O)C(O)C1F [Compound 11 of Example 5(b), 7-0-(2,6-dideoxy-2-fluoro-α-L-talopyranosyl) adriamycinone 14-0-hemipimelate]	165%	171%	176%	>294%	>271%	>353%	33 mg/mL (≈ 46.8 mM)
COc1cccc2c1C(=O)c1c(O)c3c(c(O)c1C2=O)CC(O)(C(=O)COC(=O)CCCCCCC(=O)O)CC3OC1OC(C)C(O)C(O)C1F [Compound 13 of Example 6(b), 7-0-(2,6-dideoxy-2-fluoro-α-L-talopyranosyl) adriamycinone 14-0-hemisuberate]							30 mg/mL (≈ 41.7 mM)
COc1cccc2c1C(=O)c1c(O)c3c(c(O)c1C2=O)CC(O)(C(=O)CO)CC3OC1OC(C)C(O)C(O)C1F [Control, 7-O-(2,6-dideoxy-2-fluoro-α-L-talopyranosyl)adriamycinone, reference compound]							< 1 mg/mL
